Values belong to the compound of their own block, whether it stands above or below them.
Biological target: hA2A receptor (Homo sapiens (Human), UniProt P29274)
Assay: binding affinity IC50 to hA2A receptor ([3H]-CGS 21680 filter binding, Effect Embodiment 2)
Conditions: A2A membrane, [3H]-CGS 21680 (final 25 nM), 90 minutes at 25° C.
Protocol: Evaluation experiment of the binding affinity IC50 of the compounds 1-61 to hA2A receptor
40 uL of ULTIMA GOLD scintillation fluid was added to each well and the CPM (count per minute) value was read by TopCount.

Chain of hA2A receptor (P29274 whole entry): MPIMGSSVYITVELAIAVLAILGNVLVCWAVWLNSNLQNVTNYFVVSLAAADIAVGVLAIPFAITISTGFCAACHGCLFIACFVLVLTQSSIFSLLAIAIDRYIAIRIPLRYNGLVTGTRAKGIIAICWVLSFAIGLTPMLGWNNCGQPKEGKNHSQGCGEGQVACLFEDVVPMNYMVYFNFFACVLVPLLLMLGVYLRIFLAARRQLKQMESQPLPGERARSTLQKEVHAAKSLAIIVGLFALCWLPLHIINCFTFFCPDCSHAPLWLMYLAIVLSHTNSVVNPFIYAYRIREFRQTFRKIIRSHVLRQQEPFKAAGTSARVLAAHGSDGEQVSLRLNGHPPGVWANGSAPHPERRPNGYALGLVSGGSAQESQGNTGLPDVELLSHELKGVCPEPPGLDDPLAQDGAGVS

Compound: 2-amino-6-(5-methylfuran-2-yl)-9-(2-(trifluoromethyl)phenyl)-8(9H)-carbonyl-7H-purine [Compound 60]
IC50: 177 nM

Compound: 2-amino-9-((2-fluorophenyl)methyl)-6-(furan-2-yl)-7-methyl-8,9-dihydro-7H-purinyl-8-one [Compound 40]
IC50: 106 nM

Compound: N#Cc1ccc(CC2OC(=O)c3c(-c4ccco4)nc(N)nc32)cc1F (stereo not drawn) [Compound 3]
IC50: 159 nM

Compound: N#Cc1ccc(CC2OC(=O)c3c(-c4ccco4)nc(N)nc32)cc1 (stereo not drawn) [Compound 4]
IC50: 249 nM

Compound: Nc1nc(-c2ccco2)c2c(n1)[C@@H](Cc1ccccc1)OC2 [Compound 6, (R)-7-benzyl-4-(furan-2-yl)-5,7-dihydrofuro[3,4-d]pyrimidin-2-amine]
IC50: 157 nM

Compound: Nc1nc(-c2ccco2)c2c(n1)C(Cc1ccc(F)cc1Cl)OC2=O (stereo not drawn) [Compound 10, 2-amino-7-(2-chloro-4-fluorobenzyl)-4-(furan-2-yl)-5H,7H-furo[3,4-d]pyrimidin-5-one]
IC50: 114 nM

Compound: Nc1nc(-c2ccco2)c2c(n1)C(Cc1ccc(Cl)c(F)c1)OC2=O (stereo not drawn) [Compound 12, 2-amino-7-(4-chloro-3-fluorobenzyl)-4-(furan-2-yl)-5H,7H-furo[3,4-d]pyrimidin-5-one]
IC50: 99.8 nM

Compound: CS(=O)(=O)c1ccc(CC2OC(=O)c3c(-c4ccco4)nc(N)nc32)cc1 (stereo not drawn) [Compound 13, 2-amino-4-(furan-2-yl)-7-(4-methylsulfonylbenzyl)-5H,7H-furo[3,4-d]pyrimidin-5-one]
IC50: 152 nM

Compound: NC(=O)c1ccc(CC2OC(=O)c3c(-c4ccco4)nc(N)nc32)cc1 (stereo not drawn) [Compound 14, 4-((2-amino-4-(furan-2-yl)-5-oxo-5H,7H-furo[3,4-d]pyrimidin-7-yl)methyl)benzamide]
IC50: 218 nM

Compound: Nc1nc(-c2ccco2)c2c(n1)C(Cc1ccc(C(F)(F)F)cc1)OC2=O (stereo not drawn) [Compound 15]
IC50: 274 nM

Compound: Nc1nc(-c2ccco2)c2c(n1)C(Cc1cc(C(F)(F)F)cc(C(F)(F)F)c1)OC2=O (stereo not drawn) [Compound 20, 2-amino-7-((3,5-di(trifluoromethyl)phenyl)methyl)-4-(furan-2-yl)-5H,7H-furo[3,4-d]pyrimidin-5-one]
IC50: 299 nM

Compound: Nc1nc(-c2ccco2)c2c(n1)C(Cc1ccc(OC(F)(F)F)cc1)OC2=O (stereo not drawn) [Compound 21, 2-amino-7-((4-(trifluoromethoxyl)phenyl)methyl)-4-(furan-2-yl)-5H,7H-furo[3,4-d]pyrimidin-5-one]
IC50: 106 nM

Compound: Nc1nc(-c2ccccn2)c2c(n1)C(Cc1ccccc1)OC2=O (stereo not drawn) [Compound 24, 2-amino-7-benzyl-4-(pyridin-2-yl)-5H,7H-furo[3,4-d]pyrimidin-5-one]
IC50: 918 nM

Compound: Cc1ccc(-c2nc(N)nc3c2C(=O)OC3Cc2cc(F)ccc2F)o1 (stereo not drawn) [Compound 29, 2-amino-7-((2,5-difluorophenyl)methyl)-4-(5-methylfuran-2-yl)-5H,7H-furo[3,4-d]pyrimidin-5-one]
IC50: 252 nM

Compound: Nc1nc(-c2ccco2)c2c(n1)[C@H](Cc1ccccc1)OC2 [Compound 33, (S)-7-benzyl-4-(furan-2-yl)-5,7-dihydrofuro[3,4-d]pyrimidin-2-amine]
IC50: 275 nM

Compound: Cc1ccc(-c2nc(N)nc3c2C(=O)OC3Cc2ccccc2OC(F)F)o1 (stereo not drawn) [Compound 39, 2-amino-7-((2-(difluoromethoxyl)phenyl)methyl)-4-(5-methylfuran-2-yl)-5H,7H-furo[3,4-d]pyrimidin-5-one]
IC50: 128 nM

Compound: Cc1ccc(-c2nc(N)nc3c2C(=O)OC3(C)Cc2ccccc2F)o1 (stereo not drawn) [Compound 43, 2-amino-7-((2-fluorophenyl)methyl)-7-methyl-4-(5-methylfuran-2-yl)-5H,7H-furo[3,4-d]pyrimidin-5-one]
IC50: 992 nM

Stronger by IC50, values ahead:

IC50: 39.3 nM
Compound: Nc1nc(-c2ccco2)c2c(n1)C(Cc1ccc(Cl)cc1F)OC2=O (stereo not drawn) [Compound 2, 2-amino-7-(4-chloro-2-fluorobenzyl)-4-(furan-2-yl)-5H,7H-furo[3,4-d]pyrimidin-5-one]

IC50: 40 nM
Compound: Nc1nc(-c2ccco2)c2c(n1)C(Cc1ccccc1)OC2=O (stereo not drawn) [Compound 5, 2-amino-7-benzyl-4-(furan-2-yl)-5H,7H-furo[3,4-d]pyrimidin-5-one]

IC50: 10.7 nM
Compound: Nc1nc(-c2ccco2)c2c(n1)C(Cc1ccc(F)cc1F)OC2=O (stereo not drawn) [Compound 8, 2-amino-7-(2,4-difluorobenzyl)-4-(furan-2-yl)-5H,7H-furo[3,4-d]pyrimidin-5-one]

IC50: 32.1 nM
Compound: Nc1nc(-c2ccco2)c2c(n1)C(Cc1ccccc1Cl)OC2=O (stereo not drawn) [Compound 11, 2-amino-7-(2-chlorobenzyl)-4-(furan-2-yl)-5H,7H-furo[3,4-d]pyrimidin-5-one]

IC50: 15.7 nM
Compound: Nc1nc(-c2ccco2)c2c(n1)C(Cc1ccccc1C(F)(F)F)OC2=O (stereo not drawn) [Compound 16, 2-amino-4-(furan-2-yl)-7-((2-(trifluoromethyl)phenyl)methyl)-5H,7H-furo[3,4-d]pyrimidin-5-one]

IC50: 29.2 nM
Compound: Nc1nc(-c2ccco2)c2c(n1)C(Cc1c(F)cccc1Cl)OC2=O (stereo not drawn) [Compound 17, 2-amino-7-((2-chloro-6-fluorophenyl)methyl)-4-(furan-2-yl)-5H,7H-furo[3,4-d]pyrimidin-5-one]

IC50: 73.7 nM
Compound: Nc1nc(-c2ccco2)c2c(n1)C(Cc1cccc(Cl)c1F)OC2=O (stereo not drawn) [Compound 18, 2-amino-7-((3-chloro-2-fluorophenyl)methyl)-4-(furan-2-yl)-5H,7H-furo[3,4-d]pyrimidin-5-one]

IC50: 31.1 nM
Compound: Cc1ccccc1CC1OC(=O)c2c(-c3ccco3)nc(N)nc21 (stereo not drawn) [Compound 19, 2-amino-7-((2-methylphenyl)methyl)-4-(furan-2-yl)-5H,7H-furo[3,4-d]pyrimidin-5-one]

IC50: 47.3 nM
Compound: Nc1nc(-c2ccco2)c2c(n1)C(Cc1c(F)cccc1F)OC2=O (stereo not drawn) [Compound 22, 2-amino-7-((2,6-difluorophenyl)methyl)-4-(furan-2-yl)-5H,7H-furo[3,4-d]pyrimidin-5-one]

IC50: 3.9 nM
Compound: Nc1nc(-c2ccco2)c2c(n1)C(Cc1ccccc1OC(F)(F)F)OC2=O (stereo not drawn) [Compound 23, 2-amino-7-((2-(trifluoromethoxyl)phenyl)methyl)-4-(furan-2-yl)-5H,7H-furo[3,4-d]pyrimidin-5-one]

IC50: 32.1 nM
Compound: Cc1ccc(-c2nc(N)nc3c2C(=O)OC3Cc2ccc(F)cc2F)o1 (stereo not drawn) [Compound 26, 2-amino-7-((2,4-difluorophenyl)methyl)-4-(5-methylfuran-2-yl)-5H,7H-furo[3,4-d]pyrimidin-5-one]

IC50: 21 nM
Compound: Cc1ccc(-c2nc(N)nc3c2C(=O)OC3Cc2ccccc2F)o1 (stereo not drawn) [Compound 27, 2-amino-7-((2-fluorophenyl)methyl)-4-(5-methylfuran-2-yl)-5H,7H-furo[3,4-d]pyrimidin-5-one]

IC50: 11.2 nM
Compound: Cc1ccc(-c2nc(N)nc3c2C(=O)OC3Cc2ccccc2C(F)(F)F)o1 (stereo not drawn) [Compound 28, 2-amino-7-((2-(trifluoromethyl)phenyl)methyl)-4-(5-methylfuran-2-yl)-5H,7H-furo[3,4-d]pyrimidin-5-one]

IC50: 94 nM
Compound: Cc1ccc(-c2nc(N)nc3c2C(=O)OC3Cc2cc(Cl)ccc2F)o1 (stereo not drawn) [Compound 30, 2-amino-7-((5-chloro-2-fluorophenyl)methyl)-4-(5-methylfuran-2-yl)-5H,7H-furo[3,4-d]pyrimidin-5-one]

IC50: 38.4 nM
Compound: Cc1ccc(-c2nc(N)nc3c2C(=O)OC3Cc2c(F)cccc2Cl)o1 (stereo not drawn) [Compound 31, 2-amino-7-((6-chloro-2-fluorophenyl)methyl)-4-(5-methylfuran-2-yl)-5H,7H-furo[3,4-d]pyrimidin-5-one]

IC50: 19.9 nM
Compound: Cc1ccc(-c2nc(N)nc3c2C(=O)OC3Cc2ccc(F)cc2C(F)(F)F)o1 (stereo not drawn) [Compound 32, 2-amino-7-((4-fluoro-2-(trifluoromethyl)phenyl)methyl)-4-(5-methylfuran-2-yl)-5H,7H-furo[3,4-d]pyrimidin-5-one]

IC50: 30.1 nM
Compound: Cn1c(=O)n(Cc2ccc(F)cc2F)c2nc(N)nc(-c3ccco3)c21 [Compound 35, 2-amino-9-((2,4-difluorophenyl)methyl)-6-(furan-2-yl)-7-methyl-8,9-dihydro-7H-purinyl-8-one]

IC50: 28.1 nM
Compound: Cc1ccc(-c2nc(N)nc3c2C(=O)OC3Cc2ccccc2OC(F)(F)F)o1 (stereo not drawn) [Compound 36, 2-amino-7-((2-(trifluoromethoxyl)phenyl)methyl)-4-(5-methylfuran-2-yl)-5H,7H-furo[3,4-d]pyrimidin-5-one]

IC50: 67.4 nM
Compound: Nc1nc(-c2ccc(Br)o2)c2c(n1)C(Cc1ccccc1OC(F)(F)F)OC2=O (stereo not drawn) [Compound 37, 2-amino-7-((2-(trifluoromethoxyl)phenyl)methyl)-4-(5-bromofuran-2-yl)-5H,7H-furo[3,4-d]pyrimidin-5-one]

IC50: 6.1 nM
Compound: CN1C(=O)c2c(nc(N)nc2-c2ccco2)C1=Cc1ccccc1F [Compound 38, 2-amino-7-((2-fluorophenyl)methylene)-4-(furan-2-yl)-6-methyl-5H,6H,7H-pyrrolo[3,4-d]pyrimidin-5-one]

IC50: 43.5 nM
Compound: Cn1c(=O)n(Cc2ccccc2F)c2nc(N)nc(-c3ccco3)c21 [Compound 41, 2-amino-9-((2-fluorophenyl)methyl)-6-(furan-2-yl)-7-methyl-8,9-dihydro-7H-purinyl-8-one]

IC50: 87.4 nM
Compound: Cc1ccc(-c2nc(N)nc3c2C(=O)OC3Cc2ccc(F)cc2F)o1 (stereo not drawn) [Compound 42, 2-amino-7-((2,4-difluorophenyl)methyl)-7-deuterium-4-(5-methylfuran-2-yl)-5H,7H-furo[3,4-d]pyrimidin-5-one]

IC50: 64.6 nM
Compound: CN1C(=O)c2c(-c3ccco3)nc(N)nc2C1Cc1ccccc1F (stereo not drawn) [Compound 44, 2-amino-7-((2-fluorophenyl)methyl)-4-(furan-2-yl)-6-methyl-5H,6H,7H-pyrrolo[3,4-d]pyrimidin-5-one]

IC50: 11.6 nM
Compound: CN1C(=O)c2c(-c3ccco3)nc(N)nc2C1Cc1ccccc1OC(F)(F)F (stereo not drawn) [Compound 45, 2-amino-7-((2-trifluoromethoxylphenyl)methyl)-4-(furan-2-yl)-6-methyl-5H,6H,7H-pyrrolo[3,4-d]pyrimidin-5-one]

IC50: 8.7 nM
Compound: CN1C(=O)c2c(nc(N)nc2-c2ccco2)C1=Cc1ccc(F)cc1F [Compound 46, 2-amino-7-((2,4-difluorophenyl)methylene)-4-(furan-2-yl)-6-methyl-5H,6H,7H-pyrrolo[3,4-d]pyrimidin-5-one]

— patent US11066413B2, “Aminopyrimidine five-membered heterocyclic compound, and intermediate, preparation method, pharmaceutical composition and application thereof” (GUANGZHOU MAXINOVEL PHARMACEUTICALS CO., LTD., priority 2017, dated 2021)
